According to PubChem BioAssay AID328 (DTP/NCI, 2004):
Where “and” joins values, the source holds several entries; their conditions need not be identical. Identical values can stand only once. Inconclusive results and toxic doses are left out.

How the values were obtained:
[1] = system: BDF1 mice, P388 leukemia ip, median survival T/C; test: NCI In Vivo Anticancer Drug Screen. Data for tumor model P388 Leukemia (intraperitoneal) in B6D2F1 (BDF1) mice; conditions: endpoint: median survival time, higher = longer survival
Procedure, shortened: (§1)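 Each value expresses how treatment altered survival: treated-mouse outcome over vehicle-mouse outcome, both groups bearing the transplanted tumour.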

[2] = system: BDF1 mice, P388 leukemia ip; test: as above; conditions: endpoint: mean survival time, schedule: Q01DX009 (ip), higher = longer survival
Procedure, shortened: as §1

[3] = dose: 12.5 mg/kg/injection, schedule: Q04DX003 (ip), vehicle: saline with Tween-80
[4] = dose: 25.0 mg/kg/injection, schedule: Q01DX009 (ip), vehicle: saline with Tween-80
[5] = dose: 25.0 mg/kg/injection, schedule: Q04DX003 (ip), vehicle: saline with Tween-80
[6] = dose: 50.0 mg/kg/injection, schedule: Q01DX009 (ip), vehicle: saline with Tween-80
[7] = dose: 50.0 mg/kg/injection, schedule: Q04DX003 (ip), vehicle: saline with Tween-80
[8] = dose: 25.0 mg/kg/injection, schedule: Q01DX009 (ip), vehicle: saline
[9] = dose: 100.0 mg/kg/injection, schedule: Q01DX009 (ip), vehicle: saline with Tween-80
[10] = dose: 100.0 mg/kg/injection, schedule: Q04DX003 (ip), vehicle: saline with Tween-80
[11] = dose: 200.0 mg/kg/injection, schedule: Q01DX009 (ip), vehicle: saline with Tween-80
[12] = dose: 200.0 mg/kg/injection, schedule: Q04DX003 (ip), vehicle: saline with Tween-80
[13] = dose: 400.0 mg/kg/injection, schedule: Q01DX009 (ip), vehicle: saline with Tween-80
[14] = dose: 400.0 mg/kg/injection, schedule: Q04DX003 (ip), vehicle: saline with Tween-80

In the case of `CN(C)Cc1ccc(C(C)(C)C)cc1`, the T/C ([1]; dose: 6.25 mg/kg/injection, schedule: Q04DX003 (ip), vehicle: water) is reported as 98 % of control, the T/C ([1]; dose: 12.5 mg/kg/injection, schedule: Q04DX003 (ip), vehicle: water) is reported as 112 % of control and the T/C ([1]; dose: 25.0 mg/kg/injection, schedule: Q04DX003 (ip), vehicle: water) is reported as 106 % of control. For the same compound, the T/C ([1]; dose: 50.0 mg/kg/injection, schedule: Q04DX003 (ip), vehicle: water) was 106 % of control, the T/C ([1]; dose: 100.0 mg/kg/injection, schedule: Q04DX003 (ip), vehicle: water) was 99 % of control and 100 % of control and the T/C ([2]; dose: 3.12 mg/kg/injection, vehicle: water) was 108 % of control. The T/C ([2]; dose: 6.25 mg/kg/injection, vehicle: water) was 100 % of control, the T/C ([2]; dose: 12.5 mg/kg/injection, vehicle: water) was 102 % of control and the T/C ([2]; dose: 25.0 mg/kg/injection, vehicle: water) was 96 % of control. For the same compound, the T/C ([2]; dose: 100.0 mg/kg/injection, vehicle: water) was 95 % of control.
In the case of `CNC(C)(C)C(SSSC(c1ccc(Cl)cc1)C(C)(C)NC)c1ccc(Cl)cc1` (stereo not drawn), the T/C [1, 3] is reported as 101 % of control, the T/C [1, 4] is reported as 102 % of control and the T/C [1, 5] is reported as 100 % of control. For the same compound, the T/C [1, 6] was 94 % of control, the T/C [1, 7] was 95 % of control and the T/C ([2]; dose: 6.25 mg/kg/injection, vehicle: saline with Tween-80) was 95 % of control. The T/C ([2]; dose: 12.5 mg/kg/injection, vehicle: saline with Tween-80) was 114 % of control and the T/C ([2]; dose: 25.0 mg/kg/injection, vehicle: saline with Tween-80) was 103 % of control.
In the case of `COc1ccc(CC2=NCCc3cc(OC)c(OC)cc32)cc1OC`, the T/C ([1]; dose: 12.5 mg/kg/injection, schedule: Q01DX009 (ip), vehicle: saline) is reported as 153 % of control and the T/C [1, 8] is reported as 99 % of control.
With `CCCCCCCCCCCCCCCC(=O)N(c1ccc(N)cc1)C(C)CCCN(CC)CC` (stereo not drawn) the T/C [1, 9] was 89 % of control, the T/C [1, 10] was 90 % of control and the T/C [1, 11] was 98 % of control. For the same compound, the T/C [1, 12] was 90 % of control, the T/C [1, 13] was 100 % of control and the T/C [1, 14] was 90 % of control.
In the case of `C(=N/c1ncn[nH]1)/Nc1ncn[nH]1`, the T/C ([1]; dose: 12.5 mg/kg/injection, schedule: Q01DX009 (ip), vehicle: suspension in saline) is reported as 100 % of control, the T/C ([1]; dose: 25.0 mg/kg/injection, schedule: Q01DX009 (ip), vehicle: suspension in saline) is reported as 113 % of control and the T/C ([1]; dose: 50.0 mg/kg/injection, schedule: Q01DX009 (ip), vehicle: suspension in saline) is reported as 118 % of control. The T/C ([1]; dose: 100.0 mg/kg/injection, schedule: Q01DX009 (ip), vehicle: suspension in saline) was 96 % of control.
`COc1ccc2[nH]ccc(=O)c2c1` was tested, and the T/C [1, 6] was 102 % of control, the T/C [1, 9] was 96 % of control and the T/C [1, 11] was 105 % of control.
For `COc1cc2c3c(c4ccc(O)cc4c2cc1OC)[C@@H](O)[C@@H]1CCCN1C3`, the T/C ([1]; dose: 2.5 mg/kg/injection, schedule: Q01DX009 (ip), vehicle: water) was 115 % of control and the T/C ([1]; dose: 5.0 mg/kg/injection, schedule: Q01DX009 (ip), vehicle: water) was 123 % of control.
In the case of `C(CC1CO1)C1CO1` (stereo not drawn), the T/C ([1]; dose: 22.0 mg/kg/injection, schedule: Q01DX009 (ip), vehicle: saline) is reported as 119 % of control and 120 % of control, the T/C [1, 8] is reported as 157 % of control and the T/C ([1]; dose: 30.0 mg/kg/injection, schedule: Q04DX003 (ip), vehicle: saline) is reported as 113 % of control. The T/C ([1]; dose: 33.0 mg/kg/injection, schedule: Q01DX009 (ip), vehicle: saline) was 150 % of control, the T/C ([1]; dose: 50.0 mg/kg/injection, schedule: Q01DX009 (ip), vehicle: saline) was 161 % of control and 166 % of control and 176 % of control and the T/C ([1]; dose: 67.0 mg/kg/injection, schedule: Q04DX003 (ip), vehicle: saline) was 172 % of control and 176 % of control. The T/C ([1]; dose: 75.0 mg/kg/injection, schedule: Q01DX009 (ip), vehicle: saline) was 175 % of control and 200 % of control, the T/C ([1]; dose: 100.0 mg/kg/injection, schedule: Q01DX009 (ip), vehicle: saline) was 215 % of control and the T/C ([1]; dose: 100.0 mg/kg/injection, schedule: Q04DX003 (ip), vehicle: saline) was 241 % of control and 200 % of control. For the same compound, the T/C ([1]; dose: 150.0 mg/kg/injection, schedule: Q04DX003 (ip), vehicle: saline) was 240 % of control.
`O=C(O)c1c(Cl)cc(Cl)c(-c2c(Cl)cc(Cl)c(C(=O)O)c2Cl)c1Cl` was tested, and the T/C [1, 9] was 112 % of control, the T/C [1, 11] was 108 % of control and the T/C [1, 13] was 108 % of control.
In the case of `CNC(=S)N/N=C/C(=O)c1ccco1`, the T/C ([1]; dose: 22.5 mg/kg/injection, schedule: Q01DX009 (ip), vehicle: saline with Tween-80) is reported as 104 % of control, the T/C ([1]; dose: 45.0 mg/kg/injection, schedule: Q01DX009 (ip), vehicle: saline with Tween-80) is reported as 98 % of control and the T/C ([1]; dose: 90.0 mg/kg/injection, schedule: Q01DX009 (ip), vehicle: saline with Tween-80) is reported as 105 % of control.
In the case of `S=c1[nH]nc(Nc2ccccc2Cl)s1`, the T/C [1, 6] is reported as 100 % of control, the T/C [1, 9] is reported as 90 % of control and the T/C [1, 11] is reported as 100 % of control.
For `O=C(Cl)c1ccc(N2C(=O)c3ccccc3C2=O)cc1[N+](=O)[O-]`, the T/C [1, 6] was 118 % of control, the T/C [1, 7] was 96 % of control and the T/C [1, 9] was 121 % of control. For the same compound, the T/C [1, 10] was 102 % of control, the T/C [1, 11] was 115 % of control and the T/C [1, 12] was 100 % of control. The T/C [1, 13] was 101 % of control and the T/C [1, 14] was 105 % of control.
For `O=C(NCCN1CC1)C(=O)NCCN1CC1`, the T/C ([1]; dose: 1.56 mg/kg/injection, schedule: Q04DX003 (ip), vehicle: saline with Tween-80) was 250 % of control, the T/C ([1]; dose: 3.12 mg/kg/injection, schedule: Q04DX003 (ip), vehicle: saline with Tween-80) was 173 % of control and the T/C ([1]; dose: 6.25 mg/kg/injection, schedule: Q04DX003 (ip), vehicle: saline with Tween-80) was 105 % of control.
In the case of `Nc1c(SSc2ccc3ccccc3c2N)ccc2ccccc12`, the T/C ([1]; dose: 6.25 mg/kg/injection, schedule: Q01DX001 (ip), vehicle: Klucel (hydroxypropylcellulose) (HPC)) is reported as 109 % of control, the T/C ([1]; dose: 12.5 mg/kg/injection, schedule: Q01DX001 (ip), vehicle: Klucel (hydroxypropylcellulose) (HPC)) is reported as 109 % of control and the T/C ([1]; dose: 25.0 mg/kg/injection, schedule: Q01DX001 (ip), vehicle: Klucel (hydroxypropylcellulose) (HPC)) is reported as 116 % of control.
With `Cc1cccc(C(=O)C=C(C(F)(F)F)C(F)(F)F)c1` the T/C ([1]; dose: 6.25 mg/kg/injection, schedule: Q01DX009 (ip), vehicle: saline with Tween-80) was 110 % of control, the T/C ([1]; dose: 12.5 mg/kg/injection, schedule: Q01DX009 (ip), vehicle: saline with Tween-80) was 155 % of control and the T/C [1, 3] was 119 % of control. The T/C ([1]; dose: 12.5 mg/kg/injection, schedule: Q04DX003 (sc), vehicle: saline with Tween-80) was 105 % of control, the T/C [1, 4] was 150 % of control and the T/C [1, 5] was 104 % of control. For the same compound, the T/C ([1]; dose: 25.0 mg/kg/injection, schedule: Q04DX003 (sc), vehicle: saline with Tween-80) was 115 % of control, the T/C [1, 7] was 119 % of control and the T/C ([1]; dose: 50.0 mg/kg/injection, schedule: Q04DX003 (sc), vehicle: saline with Tween-80) was 120 % of control.
With `O=C1NC(c2ccccc2)C(=O)N1CCN(CCCl)CCCl` (stereo not drawn) the T/C ([1]; dose: 1.56 mg/kg/injection, schedule: Q01DX009 (ip), vehicle: saline) was 114 % of control, the T/C ([1]; dose: 3.12 mg/kg/injection, schedule: Q01DX009 (ip), vehicle: saline) was 105 % of control and the T/C [1, 8] was 201 % of control.
With `O=C(O)Cc1c[nH]c2cccc(Cl)c12` the T/C [1, 6] was 93 % of control, the T/C [1, 9] was 98 % of control and the T/C [1, 11] was 100 % of control.
